Data published in US9580423B2, “Bicyclic heterocycles as FGFR4 inhibitors” (Incyte Corporation, priority 2015, dated 2017).
Like-named read-outs stand apart in the source and are kept apart here.

Assays:
[1] = molecular target: FGFR1 (Homo sapiens (Human), UniProt P11362); assay: FGFR Enzymatic Assay (FRET peptide phosphorylation), FGFR1; details: read-out: FGFR1 IC50
Text: (§1) The enzymes were purchased from Millipore or Invitrogen.
(§2) GraphPad prism3 was used to analyze the data. The IC50 values were derived by fitting the data to the equation for a sigmoidal dose-response with a variable slope. Y=Bottom+(Top-Bottom)/(1+10^((LogIC50−X)*HillSlope)) where X is the logarithm of concentration and Y is the response.

[2] = molecular target: FGFR3 (Homo sapiens (Human), UniProt P22607); assay: FGFR Enzymatic Assay (FRET peptide phosphorylation), FGFR3; details: read-out: FGFR3 IC50
Text: as §1, §2

[3] = molecular target: FGFR4 (Homo sapiens (Human), UniProt P22455); assay: FGFR Enzymatic Assay (FRET peptide phosphorylation), FGFR4; details: for FGFR1/FGFR4 IC50 ratio / FGFR2/FGFR4 IC50 ratio / FGFR3/FGFR4 IC50 ratio: IC50 ratio showing FGFR4 selectivity
Text: as §1, §2

[4] = molecular target: FGFR2 (Homo sapiens (Human), UniProt P21802); assay: FGFR Enzymatic Assay (FRET peptide phosphorylation), FGFR2; details: read-out: FGFR2 IC50
Text: as §1, §2

[5] = read-out: FGFR4 IC50, pre-incubated for 4 hours
[6] = pre-incubated for 5 to 10 minutes

FGFR1, sequence (P11362 22-822): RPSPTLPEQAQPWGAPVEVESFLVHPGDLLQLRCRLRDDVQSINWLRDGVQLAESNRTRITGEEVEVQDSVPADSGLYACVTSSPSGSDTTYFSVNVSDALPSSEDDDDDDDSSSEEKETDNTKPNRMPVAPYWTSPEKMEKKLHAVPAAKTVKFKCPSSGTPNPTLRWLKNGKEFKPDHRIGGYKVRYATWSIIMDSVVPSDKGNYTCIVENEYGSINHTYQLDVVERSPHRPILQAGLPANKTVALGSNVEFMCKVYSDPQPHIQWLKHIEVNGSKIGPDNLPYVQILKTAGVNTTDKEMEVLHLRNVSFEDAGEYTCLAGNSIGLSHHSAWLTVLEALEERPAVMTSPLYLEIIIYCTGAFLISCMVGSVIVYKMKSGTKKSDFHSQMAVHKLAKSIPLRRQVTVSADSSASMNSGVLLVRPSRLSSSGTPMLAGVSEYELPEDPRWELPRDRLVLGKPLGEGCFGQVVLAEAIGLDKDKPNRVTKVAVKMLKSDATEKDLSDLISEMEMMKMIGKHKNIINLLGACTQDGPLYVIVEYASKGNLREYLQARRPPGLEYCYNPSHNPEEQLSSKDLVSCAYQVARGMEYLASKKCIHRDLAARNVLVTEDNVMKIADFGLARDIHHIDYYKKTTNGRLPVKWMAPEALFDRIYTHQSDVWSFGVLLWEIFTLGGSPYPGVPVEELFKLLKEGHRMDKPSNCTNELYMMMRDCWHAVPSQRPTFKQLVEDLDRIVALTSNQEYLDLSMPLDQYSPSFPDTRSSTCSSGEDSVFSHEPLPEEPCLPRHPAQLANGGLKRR
FGFR4, sequence (P22455 22-802): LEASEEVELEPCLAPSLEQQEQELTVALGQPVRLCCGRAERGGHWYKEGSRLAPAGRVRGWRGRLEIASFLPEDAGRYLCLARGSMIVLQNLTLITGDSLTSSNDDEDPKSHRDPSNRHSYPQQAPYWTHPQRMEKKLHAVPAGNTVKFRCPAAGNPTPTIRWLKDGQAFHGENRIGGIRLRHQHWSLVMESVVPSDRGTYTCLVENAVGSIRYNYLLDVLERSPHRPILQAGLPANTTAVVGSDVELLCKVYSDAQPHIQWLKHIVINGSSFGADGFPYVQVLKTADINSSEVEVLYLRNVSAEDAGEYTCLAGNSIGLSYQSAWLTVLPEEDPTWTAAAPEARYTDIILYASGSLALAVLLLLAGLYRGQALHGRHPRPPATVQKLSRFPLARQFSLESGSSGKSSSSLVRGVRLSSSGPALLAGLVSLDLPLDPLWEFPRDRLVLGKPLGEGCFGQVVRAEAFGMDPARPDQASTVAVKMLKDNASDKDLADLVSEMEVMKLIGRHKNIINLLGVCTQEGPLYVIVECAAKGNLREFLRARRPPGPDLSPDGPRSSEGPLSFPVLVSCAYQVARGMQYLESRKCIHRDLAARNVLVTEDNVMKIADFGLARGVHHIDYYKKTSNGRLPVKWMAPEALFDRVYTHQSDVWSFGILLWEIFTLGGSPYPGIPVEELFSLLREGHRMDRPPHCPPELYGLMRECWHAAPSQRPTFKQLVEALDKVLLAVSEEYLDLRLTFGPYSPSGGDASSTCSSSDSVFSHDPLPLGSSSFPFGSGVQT
FGFR3, sequence (P22607 23-806): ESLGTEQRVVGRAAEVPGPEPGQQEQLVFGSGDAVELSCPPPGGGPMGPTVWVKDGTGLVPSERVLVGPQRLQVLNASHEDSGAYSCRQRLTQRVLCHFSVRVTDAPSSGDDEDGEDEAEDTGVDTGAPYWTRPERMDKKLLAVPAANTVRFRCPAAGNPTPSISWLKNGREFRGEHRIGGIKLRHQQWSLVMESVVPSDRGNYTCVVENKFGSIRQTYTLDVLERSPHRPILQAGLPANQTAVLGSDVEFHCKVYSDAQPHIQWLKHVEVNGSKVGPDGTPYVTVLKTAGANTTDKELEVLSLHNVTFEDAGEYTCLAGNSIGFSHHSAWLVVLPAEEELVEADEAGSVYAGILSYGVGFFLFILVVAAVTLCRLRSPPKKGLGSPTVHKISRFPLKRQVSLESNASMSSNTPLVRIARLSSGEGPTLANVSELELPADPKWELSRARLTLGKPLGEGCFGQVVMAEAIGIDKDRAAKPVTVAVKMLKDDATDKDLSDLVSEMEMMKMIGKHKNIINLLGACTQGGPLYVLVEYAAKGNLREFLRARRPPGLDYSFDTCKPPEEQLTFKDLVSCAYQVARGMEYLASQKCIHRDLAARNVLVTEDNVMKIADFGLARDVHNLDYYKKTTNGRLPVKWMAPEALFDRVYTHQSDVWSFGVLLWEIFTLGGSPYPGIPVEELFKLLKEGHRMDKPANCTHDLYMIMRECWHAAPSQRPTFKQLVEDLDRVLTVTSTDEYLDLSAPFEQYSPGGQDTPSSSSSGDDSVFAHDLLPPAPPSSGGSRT
FGFR2, sequence (P21802 22-821): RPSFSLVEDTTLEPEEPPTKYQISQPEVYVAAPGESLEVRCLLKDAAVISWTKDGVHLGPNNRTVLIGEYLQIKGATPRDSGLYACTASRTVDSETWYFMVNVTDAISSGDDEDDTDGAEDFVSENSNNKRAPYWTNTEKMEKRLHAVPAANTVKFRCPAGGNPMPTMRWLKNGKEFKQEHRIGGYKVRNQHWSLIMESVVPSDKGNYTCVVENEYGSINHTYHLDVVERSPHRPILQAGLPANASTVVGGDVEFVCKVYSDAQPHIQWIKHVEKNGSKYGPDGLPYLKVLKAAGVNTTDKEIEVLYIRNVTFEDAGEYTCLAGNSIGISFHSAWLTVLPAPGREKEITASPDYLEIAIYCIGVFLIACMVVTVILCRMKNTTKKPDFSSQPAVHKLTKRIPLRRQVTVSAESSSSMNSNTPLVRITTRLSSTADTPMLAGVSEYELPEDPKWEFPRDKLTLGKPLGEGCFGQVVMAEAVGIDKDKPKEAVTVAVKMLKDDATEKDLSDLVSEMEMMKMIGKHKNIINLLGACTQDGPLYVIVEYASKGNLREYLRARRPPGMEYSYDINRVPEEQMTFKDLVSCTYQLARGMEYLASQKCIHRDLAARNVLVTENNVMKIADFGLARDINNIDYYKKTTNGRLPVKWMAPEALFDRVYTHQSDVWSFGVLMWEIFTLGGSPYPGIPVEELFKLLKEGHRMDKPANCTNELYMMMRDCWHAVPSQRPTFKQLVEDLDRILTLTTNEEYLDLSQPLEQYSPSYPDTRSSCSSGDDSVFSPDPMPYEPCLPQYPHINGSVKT

SMILES	IC50 ([1]; pre-incubated for 4 hours) [nM]	IC50 ([2]; pre-incubated for 4 hours) [nM]	FGFR1/FGFR4 IC50 ratio ([3]; pre-incubated for 4 hours)	FGFR2/FGFR4 IC50 ratio ([3]; pre-incubated for 4 hours)	FGFR3/FGFR4 IC50 ratio ([3]; pre-incubated for 4 hours)	IC50 [3, 5] [nM]	IC50 ([4]; pre-incubated for 4 hours) [nM]	IC50 [3] [nM]	IC50 [1, 6] [nM]	IC50 [2, 6] [nM]	FGFR1/FGFR4 IC50 ratio [3, 6]	FGFR2/FGFR4 IC50 ratio [3, 6]	FGFR3/FGFR4 IC50 ratio [3, 6]	IC50 ([3]; read-out: FGFR4 IC50, pre-incubated for 5 to 10 minutes) [nM]	IC50 [4, 6] [nM]
C=CC(=O)Nc1cnn(C[C@H]2CCCO2)c1-c1cc2c(cn1)CN(c1c(F)c(OC)cc(OC)c1F)C(=O)C21CC1 [Example 30, (R)-N-(5-(2′-(2,6-difluoro-3,5-dimethoxyphenyl)-3′-oxo-2′,3′-dihydro-1′H-spiro[cyclopropane-1,4′-[2,7]naphthyridine]-6′-yl)-1-((tetrahydrofuran-2-yl)methyl)-1H-pyrazol-4-yl)acrylamide]	> 200	> 200	>100	>100	>100	< 10	> 200	–	–	–	–	–	–	–	–
C=CC(=O)Nc1cnn(CC2CCOCC2)c1-c1cc2c(cn1)CN(c1c(F)c(OC)cc(OC)c1F)C(=O)C21CC1 [Example 24, N-(5-(2′-(2,6-difluoro-3,5-dimethoxyphenyl)-3′-oxo,2′,3′-dihydro-1′H-spiro[cyclopropane-1,4′-[2,7]naphthyridine]-6′-yl)-1-((tetrahydro-2H-pyran-4-yl)methyl)-1H-pyrazol-4-yl)acrylamide]	> 200	> 200	>100	>100	>100	–	> 200	10 to 30	–	–	–	–	–	–	–
C=CC(=O)Nc1cn(CCN2CCOCC2)nc1-c1cc2c(cn1)CN(c1c(F)c(OC)cc(OC)c1F)C(=O)C21CC1 [Example 34, N-(3-(2′-(2,6-difluoro-3,5-dimethoxyphenyl)-3′-oxo-2′,3′-dihydro-1′H-spiro[cyclopropane-1,4′-[2,7]naphthyridine]-6′-yl)-1-(2-morpholinoethyl)-1H-pyrazol-4-yl)acrylamide]	> 200	> 200	>100	>100	>100	< 10	> 200	–	–	–	–	–	–	–	–
C=CC(=O)Nc1cnn(CCOC)c1-c1cc2c(cn1)CN(c1c(F)c(OC)cc(OC)c1F)C(=O)C21CC1 [Example 15, N-(5-(2′-(2,6-difluoro-3,5-dimethoxyphenyl)-3′-oxo-2′,3′-dihydro-1′H-spiro[cyclopropane-1,4′-[2,7]naphthyridine]-6′-yl)-1-(2-methoxyethyl)-1H-pyrazol-4-yl)acrylamide]	> 200	> 200	>100	>100	>100	< 10	> 200	–	–	–	–	–	–	–	–
C=CC(=O)Nc1cnn(CCO)c1-c1cc2c(cn1)CN(c1c(F)c(OC)cc(OC)c1F)C(=O)C21CC1 [Example 17, N-(5-(2′-(2,6-difluoro-3,5-dimethoxyphenyl)-3′-oxo2′,3′-dihydro-1′H-spiro[cyclopropane-1,4′-[2,7]naphthyridine]-6′-yl)-1-(2-hydroxyethyl)-1H-pyrazol-4-yl)acrylamide]	> 200	> 200	>100	>100	>100	< 10	> 200	–	–	–	–	–	–	–	–
C=CC(=O)Nc1cc(-c2cc3c(cn2)CN(c2c(F)c(OC)cc(OC)c2F)C(=O)C32CC2)cc(N2CCOCC2)c1 [Example 10, N-{3-[2′-(2,6-difluoro-3,5-dimethoxyphenyl)-3′-oxo-2′,3′-dihydro-1′H-spiro[cyclopropane-1,4′-[2,7]naphthyridin]-6′-yl]-5-morpholin-4-ylphenyl}acrylamide]	> 200	> 200	>100	>100	>100	< 10	> 200	–	> 200	> 200	>100	>100	>100	< 10	> 200
C=CC(=O)Nc1ccc(C)c(-c2ncc3c(n2)C2(CC2)C(=O)N(c2c(F)c(OC)cc(OC)c2F)C3)c1 [Example 37, N-(3-(6′-(2,6-difluoro-3,5-dimethoxyphenyl)-7′-oxo-6′,7′-dihydro-5′H-spiro[cyclopropane-1,8′-pyrido[4,3-d]pyrimidine]-2′-yl)-4-methylphenyl)acrylamide]	> 200	> 200	>100	>100	>100	< 10	> 200	–	–	–	–	–	–	–	–
C=CC(=O)Nc1cnn(Cc2ccncc2)c1-c1cc2c(cn1)CN(c1c(F)c(OC)cc(OC)c1F)C(=O)C21CC1 [Example 21, N-(5-(2′-(2,6-difluoro-3,5-dimethoxyphenyl)-3′-oxo-2′,3′-dihydro-1′H-spiro[cyclopropane-1,4′-[2,7]naphthyridine]-6′-yl)-1-(pyridin-4-ylmethyl)-1H-pyrazol-4-yl)acrylamide]	> 200	> 200	>100	>50	>100	< 10	> 200	–	–	–	–	–	–	–	–
C=CC(=O)Nc1cnn(Cc2cnn(C)c2)c1-c1cc2c(cn1)CN(c1c(F)c(OC)cc(OC)c1F)C(=O)C21CC1 [Example 27, N-(5-(2′-(2,6-difluoro-3,5-dimethoxyphenyl)-3′-oxo-2′,3′-dihydro-1′H-spiro[cyclopropane-1,4′-[2,7]naphthyridine]-6′-yl)-1-((1-methyl-1H-pyrazol-4-yl)methyl)-1H-pyrazol-4-yl)acrylamide]	> 200	> 200	>100	>100	>100	< 10	> 200	–	–	–	–	–	–	–	–
C=CC(=O)Nc1cn(CC2CCOCC2)nc1-c1cc2c(cn1)CN(c1c(F)c(OC)cc(OC)c1F)C(=O)C21CC1 [Example 35, N-(3-(2′-(2,6-difluoro-3,5-dimethoxyphenyl)-3′-oxo-2′,3′-dihydro-1′H-spiro[cyclopropane-1,4′-[2,7]naphthyridine]-6′-yl)-1-((tetrahydro-2H-pyran-4-yl)methyl)-1H-pyrazol-4-yl)acrylamide]	> 200	> 200	>100	>100	>100	< 10	> 200	–	–	–	–	–	–	–	–
